Results: patent US20220326218A1, “COMPOSITION AND METHOD FOR INHIBITING BORC COMPLEX TO TREAT CANCERS WITH NF1 DEFICIENCY AND DYSREGULATED RAS SIGNALING” (THE TRUSTEES OF DARTMOUTH COLLEGE, priority 2019, published 2022)
Structures can show the parent of a compound that is named as a salt.

Tests used:
Assay type in all cases: cell-based, human
[1] = tested on: BNIP3L/Nix; assay: Immunofluorescence staining for mitophagy receptor BNIP3L/Nix; conditions: U87-MG, 24 h; 2 μM Y102, 100 μM CoCl2; CoCl2 and Y102 compared with each other
Method: (§1) U87-MG cells were plated at a concentration of 50,000 cells/well onto precoated poly-D-lysine (PDL) coverslips (Neuvitro) in 24-well plates (Falcon) and allowed to adhere overnight. Medium was removed and replaced with treatment-laced media normalized to DMSO, and cells were treated for the indicated timepoints. At the time of collection, cells were washed with PBS and fixed with 4% paraformaldehyde without methanol (EMS) or 100% methanol (Fischer). Coverslips were washed with Tween20-containing PBS (PBST; Fischer). Following permeabilization with 0.5% Triton X-100 in PBS (Fischer), coverslips were blocked for 1 h at room temperature in IF Buffer (0.05% azide, 0.2% Triton X-100, 2% Normal Goat Serum or, for 8-OHG, Normal Donkey Serum). The following primary antibodies were used for 1 hour at room temperature unless specified: AlexaFluor 488 pre-conjugated anti-γ-H2AX (N1-431) mouse monoclonal (30 minutes; BD Biosciences), anti-cleaved caspase 3 (Asp175) rabbit polyclonal (Cell Signaling), anti-SQSTM1/p62 (D-3) mouse monoclonal (Santa Cruz), anti-8-Hydroxyguanosine goat polyclonal (1:200; Millipore), anti-LAMP1 (D4O1S) mouse monoclonal (O/N at 4° C.; Cell Signaling), anti-BNIP3L/Nix (D4R4B) rabbit monoclonal (O/N at 4° C.; Cell Signaling), anti-FLAG (M2) mouse monoclonal (2 hours at 37° C.; Sigma-Aldrich). […]

[2] = tested on: sequestosome-1 (p62); assay: Immunofluorescence staining for p62; conditions: U87-MG, 24 h; 2 μM Y102, 50 μM HCQ; HCQ and Y102 compared with each other
Method: as §1

[3] = tested on: LC3-II; assay: Western immunoblotting of autophagy marker LC3-I/II; conditions: U87-MG, 12 h treatment +/- 12 h HCQ co-treatment, total 24 h
Method: (§2) U87-MG cells were plated at 500,000 cells/well in 6-well plates and allowed to adhere overnight (Falcon). Medium was removed and replaced with fresh medium containing drugs or compounds for the indicated timepoints. Cells were collected after treatment by washing with PBS, harvested with trypsin plus agitation to detach cells, pelleted in a centrifuge and resuspended in PBS to wash. Cells were transferred to 1.5 mL microcentrifuge tubes, pelleted, and resuspended in RIPA lysis buffer (50 mM Tris pH 8.0, 150 mM NaCl, 1% nonidet P40, 0.5% sodium deoxycholate, and 0.05% SDS) containing 1 mM NaVO4, 1 mM NaF, 1 mM phenylmethylsulfonyl fluoride, 0.1 μg/mL antipain, 1 μM aprotinin, 100 μM benzamidine HCl, 0.1 μg/mL leupeptin, 0.1 μg/mL pepstatin, and 0.1 μg/mL soybean trypsin inhibitor. Protein was quantified using a BCA assay kit (Pierce). 50 μg of protein was prepared in 1× Laemmli sample buffer (50 mM Tris pH 6.8, 0.02% w/v bromophenol blue, 2% w/v SDS, 10% v/v glycerol, 1% v/v beta-mercaptoethanol, 12.5 mM EDTA) and separated by SDS-PAGE on a 4-15% polyacrylamide gradient gel (Bio-Rad). […]

[4] = tested on: mitochondria; assay: MitoTracker Red CMXRos staining of the mitochondrial network; conditions: U87-MG, 24 h; 2 μM Y102, 50 μM HCQ
Method: For MitoTracker Red CMXRos staining, 30 minutes prior to collection medium was removed and replaced with medium containing MitoTracker Red CMXRos at a final concentration of 100 nM (Molecular Probes). Following staining, cells were washed with PBS and fixed with 4% paraformaldehyde without methanol. Cells were washed with PBST, then permeabilized with 0.5% Triton X-100 in PBS. When co-staining with another marker, the staining procedure continued with the blocking step; otherwise, cells were stained with 0.33 μg/mL DAPI in PBS and mounted onto slides in ProLong Gold (Life Technologies).

[5] = tested on: p62; assay: Western immunoblotting of autophagy marker p62; conditions: U87-MG, 12 h treatment +/- 12 h HCQ
Method: as §2

With [Cl-].[Cl-].[Co+2] [CoCl2, Cobalt (II) Chloride, reference compound] the “expression/localization of BNIP3L/Nix on the mitochondria compared to DMSO control” value [1] was “similar”.

In the case of CCN(CCO)CCCC(C)Nc1ccnc2cc(Cl)ccc12 (centres unmarked) [HCQ, Hydroxychloroquine Sulfate, reference compound], the “p62 expression compared to DMSO (immunofluorescence)” value [2] is reported as “similar”, the “LC3-II accumulation (western immunoblotting)” value [3] is reported as “resulted in LC3-II accumulation” and the “mitochondrial phenotype (perinuclear clustering)” value [4] is reported as “not observed”. The “p62 expression (western immunoblotting)” value [5] was “increased”.
